Laboratory results published in patent US5763435A, “Sulfate conjugates of ursodeoxycholic acid, and their beneficial use in inflammatory disorders” (priority 1995, dated 1998).
Several values for one entry are separate records, joined by “and”; a condition that tells them apart may be missing. Identical values can stand only once.

Assays:
[1] = system: biliary lipid secretion; assay: Biliary lipid (cholesterol, phospholipid) secretion during i.v. infusion; format: in vivo, Sprague-Dawley rats; settings: for Cholesterol output, maximal change / Phospholipid output, maximal change: mean ± SEM, six animals
Protocol: (§1) Adult male Sprague-Dawley rats (body weight 200-230 g) were anesthetized by an intraperitoneal injection of pentobarbital (Nembutal, 7.5 mg/100 g body weight), and maintained under sedation by additional doses. The right jugular vein and the common bile duct were cannulated using PE-50 polyethylene tubing (Clay-Adams, Parsippany, N.J.). Body temperature was maintained throughout the experiment at 37° C. using a rectal probe and a thermostatically controlled heating pad (Harvard Apparatus Co., Inc., Millis, Mass.). Saline was infused at a rate of 1.0 ml/h using a Harvard pump (Harvard Apparatus Co., Inc.) into the jugular vein for a control period of 2h. After collecting two 10 minute bile samples for base-line analysis, the bile acids were individually infused intravenously (i.v.) for 30 minutes in stepwise increasing doses (0.5, 1.0, and 2.0 μmol/min/100 g body weight). Bile acid solutions were prepared in 3% human albumin in 0.45% saline. Six animals were used for each experiment and bile was collected every 10 minutes into preweighed tubes. At the end of the experiment, blood was obtained by cardiac puncture, and urine was obtained by aspiration of the bladder. All biological specimens were stored at -20° C. This animal study protocol (#1 B 10044) was approved by the Bioethics committee of the Children's Hospital Medical Center (Cincinnati, Ohio).
Bile volume was determined gravimetrically assuming a density of 1 g/ml. Total 3α-hydroxy bile acid concentration in the bile was measured enzymatically before solvolysis (nonsulfated bile acids) and after solvolysis (total bile acids) (Mashige, F., et al., Direct spectrometry of total bile acids in serum. Clin. Chem. 27: 1352-1356 (1981)). The bile acid output was calculated by multiplying the rate of bile-flow by the bile acid concentration. Biliary phospholipids were determined by an enzymatic procedure based on the choline oxidase method (Nippon Shoji Kaisha, Ltd., Osaka, Japan) (Grantz, D., et al., Enzymatic measurement of choline-containing phospholipids in bile. J. Lipid Res. 22: 273-276 (1981)). Cholesterol was also measured enzymatically (Boehringer Mannehim, Indianapolis, Ind.) (Fromm, H., et al., Use of a simple enzymatic assay for cholesterol analysis in human bile. J. Lipid Res. 21: 259-261 (1980)).
Results were expressed as mean±standard error of mean (SEM). Bile-flow and biliary lipid output were expressed as μl /min/g liver and nmol/min/g liver, respectively. Statistical analysis was made using INSTAT program (Graphpad Software Inc., San Diego, Calif.). Parametric data among groups were analyzed using Student's t-test. The statistical comparisons between the different groups were made by one-way analysis of variance (ANOVA). […] Linear regression analysis was performed. The choleretic activity of each bile acid was determined from the slope of regression line of the correlation between the bile acid secretion rate and bile-flow and was expressed as […]. Comparisons between slopes were made by one-way ANOVA.

[2] = system: bile acids secreted in bile; assay: Biliary bile acid composition during i.v. infusion (GC-MS); format: in vivo, Sprague-Dawley rats; settings: for Further hydroxylation (in words): GC-MS of bile
Protocol: as §1
GC-MS was carried out on either a VG Autospec Q magnetic sector instrument or a Finnigan 4635 quadruple GC-MS-DS instrument housing identical GC columns and operated under the same chromatographic conditions. Electron ionization (70 eV) mass spectra were recorded over the mass range 50 to 1000 Da/e by repetitive scanning of the eluting components.
For the determination of hepatic biotransformation of the infused bile acid, bile collections from the six animal were pooled and biliary bile acids were determined by GC-MS after extraction, solvolysis, hydrolysis, and derivatization. Quantification of bile acids was achieved using GC, by comparing the peak height response of the individual bile acid with the peak height response obtained from the internal standard, nordeoxycholic acid added to the initial sample of bile. Identification of a bile acid was made on the basis of the retention index relative to a homologous series of n-alkanes, referred to as the methylene unit value (MU) and the fragmentation pattern of the mass spectrum was compared with authentic standards. A list of over 100 mass spectra of authentic bile acid standards and retention indices was recently compiled as a reference source (Lawson, A. M., et al, Mass spectrometry of bile acids, The Bile Acids, Vol. 4, Methods and Applications, pp. 167-267 (1988)).

| Compound | Biliary cholesterol secretion (in words) [1] | Biliary phospholipid secretion (in words) [1] | Cholesterol output, maximal change [1] | Phospholipid output, maximal change [1] [nmol/min/g liver] | Relative % composition in bile: CA ([2]; 20-30 mins) [%] | Relative % composition in bile: CDCA ([2]; 20-30 mins) [%] | Relative % composition in bile: DCA ([2]; 20-30 mins) [%] | Relative % composition in bile: MCA ([2]; 20-30 mins) [%] | Relative % composition in bile: UDCA ([2]; 20-30 mins) [%] | Relative % composition in bile: α-MCA ([2]; 20-30 mins) [%] | Relative % composition in bile: β-MCA ([2]; 20-30 mins) [%] | Relative % composition in bile: CA ([2]; 50-60 mins) [%] | Relative % composition in bile: CDCA ([2]; 50-60 mins) [%] | Relative % composition in bile: DCA ([2]; 50-60 mins) [%] | Relative % composition in bile: MCA ([2]; 50-60 mins) [%] | Relative % composition in bile: UDCA ([2]; 50-60 mins) [%] | Relative % composition in bile: α-MCA ([2]; 50-60 mins) [%] | Relative % composition in bile: β-MCA ([2]; 50-60 mins) [%] | Relative % composition in bile: CA ([2]; 80-90 mins) [%] | Relative % composition in bile: CDCA ([2]; 80-90 mins) [%] | also measured |
| --- | --- | --- | --- | --- | --- | --- | --- | --- | --- | --- | --- | --- | --- | --- | --- | --- | --- | --- | --- | --- | --- |
| C[C@H](CCC(=O)O)[C@H]1CC[C@H]2[C@@H]3[C@@H](O)C[C@@H]4C[C@H](O)CC[C@]4(C)[C@H]3CC[C@]12C [UDCA, 3 alpha, 7 beta-dihydroxy-5 beta-cholan-24oic acid, reference compound] | significant decline | increased significantly | 1.88 ± 0.19 nmol/min/g liver | 17.20 ± 1.90 | 49.0 | 3.0 | 1.0 | 1.0 | 51.9 | 4.3 | 17.2 | 21.4 | 2.5 | 0.5 | 0.5 | 65.9 | 3.9 | 12.6 | 9.8 | 1.5 | Relative % composition in bile: others ([2]; 20-30 mins): 14.6%; Relative % composition in bile: others ([2]; 50-60 mins): 13.7%; Relative % composition in bile: DCA ([2]; 80-90 mins): 0.7%; Relative % composition in bile: UDCA ([2]; 80-90 mins): 79.5%; Relative % composition in bile: others ([2]; 80-90 mins): 11.9%; Relative % composition in bile: α-MCA ([2]; 80-90 mins): 6.4%; Relative % composition in bile: β-MCA ([2]; 80-90 mins): 9.9%; Further hydroxylation (in words) [2]: metabolized by further hydroxylation, most probably in the side-chain |
| C[C@H](CCC(=O)O)[C@H]1CC[C@H]2[C@@H]3[C@@H](O)C[C@@H]4C[C@H](OS(=O)(=O)O)CC[C@]4(C)[C@H]3CC[C@]12C [UDCA-3S, ursodeoxycholic acid 3-sulfate] | significantly reduced the biliary cholesterol output | significant reduction in biliary phospholipids | 0.40 ± 0.02 nmol/min/g liver and 0.40±0.05 nmol/min/g liver | 4.00 ± 0.50 | 36.0 | 4.6 | 2.5 | 4.9 | 33.3 | 6.2 | 12.4 | 14.9 | 1.9 | 1.0 | 1.5 | 70.6 | 2.7 | 7.4 | 18.2 | 2.5 | Relative % composition in bile: others ([2]; 20-30 mins): 5.2%; Relative % composition in bile: others ([2]; 50-60 mins): 11.5%; Relative % composition in bile: DCA ([2]; 80-90 mins): 1.3%; Relative % composition in bile: MCA ([2]; 80-90 mins): 2.0%; Relative % composition in bile: UDCA ([2]; 80-90 mins): 67.7%; Relative % composition in bile: others ([2]; 80-90 mins): 11.2%; Relative % composition in bile: α-MCA ([2]; 80-90 mins): 3.0%; Relative % composition in bile: β-MCA ([2]; 80-90 mins): 5.2%; Further hydroxylation (in words) [2]: metabolized by further hydroxylation, most probably in the side-chain |
| C[C@H](CCC(=O)O)[C@H]1CC[C@H]2[C@@H]3[C@@H](OS(=O)(=O)O)C[C@@H]4C[C@H](O)CC[C@]4(C)[C@H]3CC[C@]12C [UDCA-7S, ursodeoxycholic acid 7-sulfate] | cholesterol secretion was maintained | increased significantly | 1.76 ± 0.23 nmol/min/g liver and 1.76±0.21 nmol/min/g liver | 15.00 ± 1.70 | 20.2 | 1.7 | 2.3 | 1.3 | 61.3 | 2.5 | 10.7 | 7.7 | 0.6 | 0.7 | 0.6 | 83.6 | 0.9 | 5.9 | 9.9 | 0.7 | Relative % composition in bile: DCA ([2]; 80-90 mins): 1.2%; Relative % composition in bile: MCA ([2]; 80-90 mins): 0.8%; Relative % composition in bile: UDCA ([2]; 80-90 mins): 78.8%; Relative % composition in bile: α-MCA ([2]; 80-90 mins): 1.3%; Relative % composition in bile: β-MCA ([2]; 80-90 mins): 7.4%; Further hydroxylation (in words) [2]: neither UDCA-7S nor UDCA-disulfatewere hydroxylated |
| C[C@H](CCC(=O)O)[C@H]1CC[C@H]2[C@@H]3[C@@H](OS(=O)(=O)O)C[C@@H]4C[C@H](OS(=O)(=O)O)CC[C@]4(C)[C@H]3CC[C@]12C [UDCA-DS, ursodeoxycholic acid 3,7-disulfate] | significantly reduced the biliary cholesterol output | significant reduction in biliary phospholipids | 0.37 ± 0.07 nmol/min/g liver and 0.37±0.12 nmol/min/g liver | 2.50 ± 0.30 | 24.5 | 2.5 | 2.1 | 3.2 | 54.6 | 3.4 | 9.7 | 15.3 | 0.7 | 1.2 | 2.2 | 70.7 | 2.2 | 6.7 | 10.6 | 0.9 | Relative % composition in bile: MCA ([2]; 80-90 mins): 1.4%; Relative % composition in bile: UDCA ([2]; 80-90 mins): 79.1%; Relative % composition in bile: α-MCA ([2]; 80-90 mins): 2.6%; Relative % composition in bile: β-MCA ([2]; 80-90 mins): 6.5%; Further hydroxylation (in words) [2]: neither UDCA-7S nor UDCA-disulfatewere hydroxylated |
